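Exposure lasted 48 hours, with cells grown in 96-well plates and compounds tested at five concentrations. GI50 marks 50% less growth. TGI: total growth inhibition.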
Tests used:
Assay in all cases: NCI tumour cell line growth inhibition, 48 h
DMS 273 small cell lung = system: DMS 273 small cell lung
KM20L2 colon = system: KM20L2 colon
XF 498 CNS = system: XF 498 CNS
BT-549 breast = system: BT-549 breast
DU-145 prostate = system: DU-145 prostate
HS 578T breast = system: HS 578T breast
MDA-MB-231 breast = system: MDA-MB-231 breast
MDA-MB-435 = system: MDA-MB-435
PC-3 prostate = system: PC-3 prostate
T-47D breast = system: T-47D breast
M19-MEL melanoma = system: M19-MEL melanoma
DLD-1 colon = system: DLD-1 colon

Row | SMILES | TGI (DMS 273 small cell lung) | TGI (KM20L2 colon) | TGI (XF 498 CNS) | GI50 (BT-549 breast) | TGI (BT-549 breast) | GI50 (DU-145 prostate) | TGI (DU-145 prostate) | GI50 (HS 578T breast) | TGI (HS 578T breast) | GI50 (MDA-MB-231 breast) | TGI (MDA-MB-231 breast) | GI50 (MDA-MB-435) | TGI (MDA-MB-435) | GI50 (PC-3 prostate) | TGI (PC-3 prostate) | GI50 (T-47D breast) | TGI (T-47D breast) | TGI (M19-MEL melanoma) | TGI (DLD-1 colon)
1 | Cc1cc(Cl)ccc1NC(=O)CC/C(CC(=O)C(C)C)=N\NC(=O)C[n+]1ccccc1 | > 100 µM | > 100 µM | > 100 µM | – | – | – | – | – | – | – | – | – | – | – | – | – | – | – | –
2 | C[CH2][Sn]([CH2]C)([O]C(=O)C(OC(C)=O)c1ccccc1)[O]C(=O)C(OC(C)=O)c1ccccc1 (stereo not given) | – | – | – | 16.1 µM | 29.7 µM | 94.7 µM | > 100 µM | 40 µM | > 100 µM | 26.6 µM | 77.8 µM | > 100 µM | > 100 µM | > 100 µM | > 100 µM | 12.9 µM | 28 µM | – | –
3 | C1CN(SSN2CCOCC2)CCO1 | – | – | – | 30 µM | > 100 µM | > 100 µM | > 100 µM | 30.3 µM | > 100 µM | 92.8 µM | > 100 µM | 33.8 µM | > 100 µM | 25 µM | > 100 µM | 45 µM | > 100 µM | – | –
4 | CC1=C(CO)C(=O)O[C@@H]([C@@H](C)[C@H]2CC[C@H]3[C@@H]4C[C@@H](O)[C@@]5(O)CC=CC(=O)[C@]5(C)[C@H]4CC[C@]23C)C1 | – | – | – | – | 93.8 µM | – | > 100 µM | – | > 100 µM | – | > 100 µM | – | > 100 µM | – | > 100 µM | – | > 100 µM | – | –
5 | COc1ccc(C(=O)C(c2ccc(OC)cc2)C2(O)C(=O)Nc3c2ccc(Cl)c3C)cc1 (stereo not given) | – | > 100 µM | – | – | – | – | – | – | – | – | – | – | – | – | – | – | – | > 100 µM | –
6 | CCCCN(CCCC)c1ccc(C(=N)c2ccc(N(CCCC)CCCC)cc2)cc1 | – | – | – | 1.42 µM | 2.89 µM | 0.651 µM | 1.79 µM | 0.539 µM | 1.58 µM | 0.759 µM | 2.06 µM | 0.642 µM | 2.21 µM | 0.296 µM | 1.03 µM | 0.353 µM | 1.39 µM | – | –
7 | CCN(CC)Cc1ccc(Nc2nccc(-c3cnn4ncccc34)n2)cc1 | – | – | – | 0.0377 µM | 0.139 µM | 0.012 µM | > 8.56 µM | 0.0164 µM | 0.117 µM | 0.0226 µM | > 25 µM | 0.0232 µM | 0.0945 µM | 0.0184 µM | > 25 µM | 0.0542 µM | 6.6 µM | – | –
8 | O=C1c2c(O)cccc2C(C2OC(CO)C(O)C(O)C2O)c2cc(CO)cc(O)c21 (stereo not given) | – | – | – | – | > 100 µM | – | > 100 µM | – | > 100 µM | – | > 100 µM | – | > 100 µM | – | > 100 µM | – | > 100 µM | – | –
9 | C=C1C(=O)OC2C1C(OC(=O)/C(C)=C/C)CC(O)(CCl)C1C(O)C3OC3(C)C21O (stereo not given) | – | – | – | – | > 50 µM | – | > 50 µM | – | > 50 µM | – | > 50 µM | – | > 50 µM | – | > 50 µM | – | > 50 µM | – | –
10 | CCc1ccc(NC(=O)COC(=O)c2cc([N+](=O)[O-])ccc2Sc2nnnn2C)cc1 | – | – | – | 4.42 µM | 26.6 µM | 4.9 µM | 28.2 µM | 2.65 µM | 9.36 µM | 23.6 µM | > 100 µM | 3.42 µM | 21.4 µM | 15.2 µM | 84.5 µM | 18.5 µM | 82.4 µM | – | –
11 | C1=C2/CC[C@H](Sc3ccccc3)[C@H]2C2(CCCCC/1)OCCO2 | > 100 µM | 45.3 µM | – | – | – | – | – | – | – | – | – | – | – | – | – | – | – | 67 µM | > 100 µM

— PubChem BioAssay (NCI)
